# According to publication PMC12915131, “Balanced Expression of the Diiron Oxygenase BioE Is Essential for Biotin Homeostasis in Elizabethkingia meningoseptica” (Advanced Science, 2025):
# pKd: −log10 of the molar value.
# Key:
# EmBioE (BioE) = molecular target: T1, EmBioE (BioE); experiment: SPR (Biacore, CM5 chip); supported by urea-PAGE inhibition of C18-ACP cleavage (Ki […]); assay type: binding, Elizabethkingia meningoseptica
# T1 construct: 6x His-tagged EmBioE
# EmBioE = molecular target: T2, EmBioE; experiment: SPR, confirmed by MST; HPLC shows conversion to pimeloyl-CoA; assay type: binding, Elizabethkingia meningoseptica
# T2 construct: gene bioE; 6x His-tagged EmBioE
SMILES,pKd (EmBioE (BioE)),pKd (EmBioE)
"C=CCn1c(SCC(=O)Nc2scc(-c3ccc(C)cc3)c2C(=O)OC)nnc1-c1ccc(N(C)C)cc1 [compound 466982, 466982]",~4.84,–
"CCCCCCCCCCCCCCCCCC(=O)SCCNC(=O)CCNC(=O)[C@H](O)C(C)(C)COP(=O)(O)OP(=O)(O)OC[C@H]1O[C@@H](n2cnc3c(N)ncnc32)[C@H](O)[C@@H]1OP(=O)(O)O [C18-CoA, stearoyl-CoA]",–,~4.70
